US12459922B2 (Gilead Sciences, Inc., priority 2022, dated 2025)

What was measured:
[1] = system: endogenous cellular STAT1 (phosphorylated at Tyr701) in NCI-H1373 cells; assay: Phospho-STAT1 (Tyr701) LANCE Ultra TR-FRET Detection Assay; assay type: cell-based; conditions: Homo sapiens, NCI-H1373, 48 h, phospho-STAT1 (Tyr701) induction, read-out: NH1373 pSTAT1 EC50
PARP7 = target: T1, PARP7 (Homo sapiens, UniProt Q7Z3E1); assay: Probe Displacement Assay for PARP7 (MSD electrochemiluminescent, biotinylated probe RBNO11147); conditions: displacement of biotinylated probe RBNO11147 from PARP7 NAD+-binding site; read-out: MSD ProbeDisp PARP7 IC50
T1 sequence (Q7Z3E1 1-657): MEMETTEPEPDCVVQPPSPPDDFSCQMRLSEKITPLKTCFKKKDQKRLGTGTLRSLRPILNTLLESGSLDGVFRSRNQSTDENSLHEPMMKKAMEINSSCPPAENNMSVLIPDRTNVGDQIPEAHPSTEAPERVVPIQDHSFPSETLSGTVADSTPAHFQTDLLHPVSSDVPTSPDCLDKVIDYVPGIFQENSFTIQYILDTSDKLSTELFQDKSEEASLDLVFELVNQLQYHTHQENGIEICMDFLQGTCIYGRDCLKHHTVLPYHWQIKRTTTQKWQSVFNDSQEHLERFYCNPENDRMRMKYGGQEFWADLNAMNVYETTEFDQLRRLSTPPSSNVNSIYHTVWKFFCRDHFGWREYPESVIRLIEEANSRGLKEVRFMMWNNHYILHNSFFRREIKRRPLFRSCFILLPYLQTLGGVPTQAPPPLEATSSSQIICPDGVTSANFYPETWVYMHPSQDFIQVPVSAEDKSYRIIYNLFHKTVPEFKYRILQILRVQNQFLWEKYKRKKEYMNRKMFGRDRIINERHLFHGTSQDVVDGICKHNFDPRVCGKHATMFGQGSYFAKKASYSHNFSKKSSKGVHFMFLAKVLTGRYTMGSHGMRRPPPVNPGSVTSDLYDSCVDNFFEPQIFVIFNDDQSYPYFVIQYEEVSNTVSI
Procedure: Displacement of a biotinylated probe (RBNO11147; Wigle et al., Cell Chemical Biology, 2020, pp. 877-887) from the PARP7 NAD+-binding site was measured in vitro using a Mesoscale Discovery electrochemiluminescent assay. […] Next, 10 ml of 10 nM PARP7 protein incubated for 1 hour at room temperature with a dose response curve of each test compound in a Greiner LDV polypropylene plate (#781201) is added to the MSD plate containing the immobilized probe. The interaction is allowed to reach equilibrium for 1.5 hours, and then 10 ml of SULFO-TAG labeled anti-GST antibody (Cat #R32AA-1) is added to each well and allowed to incubate for an additional 1.5 hours at room temperature. Finally, 10 ml of MSD read buffer T (4×, Cat. #R92C-1) is added to each well using a Bravo liquid handler to prevent air bubbles in the wells, and the plates are subsequently read in an MSD instrument. Light intensity is then measured to quantify the amount of PARP7 bound to the immobilized probe on the plate.

EC50 [1] | IC50 (PARP7) | SMILES
39.1 nM | 0.692 nM | C[C@@H](CCCn1ccc2cc(-c3ccc(C(F)(F)F)cn3)c(F)c(F)c2c1=O)Nc1cn[nH]c(=O)c1C(F)(F)F [Example 55, (S)-7,8-difluoro-2-(4-((6-oxo-5-(trifluoromethyl)-1,6-dihydropyridazin-4-yl)amino)pentyl)-6-(5-(trifluoromethyl)pyridin-2-yl)isoquinolin-1(2H)-one]
67.2 nM | 0.579 nM | C[C@@H](CCCn1ccc2cc(-c3ncc(OC(F)F)cn3)c(F)c(F)c2c1=O)Nc1cn[nH]c(=O)c1C(F)(F)F [Example 56, (S)-6-(5-(difluoromethoxy)pyrimidin-2-yl)-7,8-difluoro-2-(4-((6-oxo-5-(trifluoromethyl)-1,6-dihydropyridazin-4-yl)amino)pentyl)isoquinolin-1(2H)-one]
144 nM | 0.613 nM | C[C@@H](CCCn1ccc2cc(-c3ccc(OC(F)F)cn3)c(F)c(F)c2c1=O)Nc1cn[nH]c(=O)c1C(F)(F)F [Example 57, (S)-6-(5-(difluoromethoxy)pyridin-2-yl)-7,8-difluoro-2-(4-((6-oxo-5-(trifluoromethyl)-1,6-dihydropyridazin-4-yl)amino)pentyl)isoquinolin-1(2H)-one]
124 nM | 0.484 nM | C[C@@H](CCCn1cnc2cc(-c3ccc(C(F)(F)F)cn3)c(F)cc2c1=O)Nc1cn[nH]c(=O)c1C(F)(F)F [Example 58, (S)-6-fluoro-3-(4-((6-oxo-5-(trifluoromethyl)-1,6-dihydropyridazin-4-yl)amino)pentyl)-7-(5-(trifluoromethyl)pyridin-2-yl)quinazolin-4(3H)-one]
386 nM | 0.82 nM | C[C@@H](CCCn1cnc2cc(-c3ccc(F)cn3)c(F)cc2c1=O)Nc1cn[nH]c(=O)c1C(F)(F)F [Example 59, (S)-6-fluoro-7-(5-fluoropyridin-2-yl)-3-(4-((6-oxo-5-(trifluoromethyl)-1,6-dihydropyridazin-4-yl)amino)pentyl)quinazolin-4(3H)-one]
772 nM | 0.897 nM | C[C@@H](CCCn1cnc2cc(-c3ncc(F)cn3)c(F)cc2c1=O)Nc1cn[nH]c(=O)c1C(F)(F)F [Example 60, 6-fluoro-7-(5-fluoropyrimidin-2-yl)-3-[(4S)-4-[[6-oxo-5-(trifluoromethyl)-1H-pyridazin-4-yl]amino]pentyl]quinazolin-4-one]
638 nM | 1.27 nM | O=c1[nH]ncc(NC2(CCCn3ccc4cc(-c5ncc(C(F)(F)F)cn5)c(F)cc4c3=O)CC2)c1C(F)(F)F [Example 61, 7-fluoro-2-(3-(1-((6-oxo-5-(trifluoromethyl)-1,6-dihydropyridazin-4-yl)amino)cyclopropyl)propyl)-6-(5-(trifluoromethyl)pyrimidin-2-yl)isoquinolin-1(2H)-one]
21.3 nM | 0.41 nM | C[C@@H](CCCn1ccc2cc(-c3ncc(C(F)F)cn3)c(F)cc2c1=O)Nc1cn[nH]c(=O)c1C(F)(F)F [Example 76, 6-[5-(difluoromethyl)pyrimidin-2-yl]-7-fluoro-2-[(4S)-4-[[6-oxo-5-(trifluoromethyl)-1H-pyridazin-4-yl]amino]pentyl]isoquinolin-1-one]
4.6 nM | 0.33 nM | C[C@@H](CCCn1ccc2cc(-c3ncc(C(F)F)c(N)n3)c(F)cc2c1=O)Nc1cn[nH]c(=O)c1C(F)(F)F [Example 104, 6-[4-amino-5-(difluoromethyl)pyrimidin-2-yl]-7-fluoro-2-[(4S)-4-[[6-oxo-5-(trifluoromethyl)-1H-pyridazin-4-yl]amino]pentyl]isoquinolin-1-one]
21.2 nM | 0.2 nM | CC[C@@H](CCCn1cnc2cc(-c3ncc(C(F)(F)F)cn3)c(F)cc2c1=O)Nc1cn[nH]c(=O)c1C(F)(F)F [Example 155, (S)-6-fluoro-3-(4-((6-oxo-5-(trifluoromethyl)-1,6-dihydropyridazin-4-yl)amino)hexyl)-7-(5-(trifluoromethyl)pyrimidin-2-yl)quinazolin-4(3H)-one]
22.1 nM | 0.29 nM | CC[C@@H](CCCn1cnc2cc(-c3ncc(C(F)F)cn3)c(F)cc2c1=O)Nc1cn[nH]c(=O)c1C(F)(F)F [Example 156, 7-[5-(difluoromethyl)pyrimidin-2-yl]-6-fluoro-3-[(4S)-4-[[6-oxo-5-(trifluoromethyl)-1H-pyridazin-4-yl]amino]hexyl]quinazolin-4-one]
62.8 nM | 0.341 nM | O=c1[nH]ncc(N[C@@H](CO)CCCn2ccc3cc(-c4ncc(C(F)(F)F)cn4)c(F)c(F)c3c2=O)c1C(F)(F)F [Example 163, 7,8-difluoro-2-[(4R)-5-hydroxy-4-[[6-oxo-5-(trifluoromethyl)-1H-pyridazin-4-yl]amino]pentyl]-6-[5-(trifluoromethyl)pyrimidin-2-yl]isoquinolin-1-one]
1.32 nM | 0.256 nM | O=c1[nH]ncc(N[C@H](CCCn2ccc3cc(-c4ncc(C(F)(F)F)cn4)c(F)cc3c2=O)COC(F)F)c1C(F)(F)F [Example 168, 2-[(4R)-5-(difluoromethoxy)-4-[[6-oxo-5-(trifluoromethyl)-1H-pyridazin-4-yl]amino]pentyl]-7-fluoro-6-[5-(trifluoromethyl)pyrimidin-2-yl]isoquinolin-1-one]
1.8 nM | 0.311 nM | Nc1nc(-c2cc3ccn(C[C@@H]4CCC[C@H](Nc5cn[nH]c(=O)c5C(F)(F)F)C4)c(=O)c3cc2F)ncc1C(F)(F)F [Example 184, 6-[4-amino-5-(trifluoromethyl)pyrimidin-2-yl]-7-fluoro-2-[[(1R,3S)-3-[[6-oxo-5-(trifluoromethyl)-1H-pyridazin-4-yl]amino]cyclohexyl]methyl]isoquinolin-1-one]
1750 nM | 0.11 nM | C[C@@H](CCCn1ccc2cc(-c3ncc4c(n3)NC(=O)CO4)c(F)cc2c1=O)Nc1cn[nH]c(=O)c1C(F)(F)F [Example 185, (S)-2-(7-fluoro-1-oxo-2-(4-((6-oxo-5-(trifluoromethyl)-1,6-dihydropyridazin-4-yl)amino)pentyl)-1,2-dihydroisoquinolin-6-yl)-6H-pyrimido[5,4-b][1,4]oxazin-7(8H)-one]
9.34 nM | 0.188 nM | C[C@@H](CCCn1cnc2cc(-c3ncc(C(F)(F)F)c(N4CC(C#N)C4)n3)c(F)cc2c1=O)Nc1cn[nH]c(=O)c1C(F)(F)F [Example 206]
31 nM | 0.221 nM | C[C@@H](CCCn1ccc2cc(-c3ncc4cn[nH]c4n3)c(F)cc2c1=O)Nc1cn[nH]c(=O)c1C(F)(F)F [Example 299, (S)-7-fluoro-2-(4-((6-oxo-5-(trifluoromethyl)-1,6-dihydropyridazin-4-yl)amino)pentyl)-6-(1H-pyrazolo[3,4-d]pyrimidin-6-yl)isoquinolin-1(2H)-one]
56.1 nM | 0.413 nM | C[C@@H](CCCn1ccc2cc(-c3nc(C(F)(F)F)n(C)n3)c(F)cc2c1=O)Nc1cn[nH]c(=O)c1C(F)(F)F [Example 300, (S)-7-fluoro-6-(1-methyl-5-(trifluoromethyl)-1H-1,2,4-triazol-3-yl)-2-(4-((6-oxo-5-(trifluoromethyl)-1,6-dihydropyridazin-4-yl)amino)pentyl)isoquinolin-1(2H)-one]
549 nM | 0.508 nM | C[C@@H](CCCn1ccc2cc(-c3nc(C(F)F)cs3)c(F)cc2c1=O)Nc1cn[nH]c(=O)c1C(F)(F)F [Example 301, (S)-6-(4-(difluoromethyl)thiazol-2-yl)-7-fluoro-2-(4-((6-oxo-5-(trifluoromethyl)-1,6-dihydropyridazin-4-yl)amino)pentyl)isoquinolin-1(2H)-one]
108 nM | 2.06 nM | C[C@@H](CCCn1ccc2cc(-c3ncc(CN)cn3)c(F)cc2c1=O)Nc1cn[nH]c(=O)c1C(F)(F)F [Example 302, (S)-6-(5-(aminomethyl)pyrimidin-2-yl)-7-fluoro-2-(4-((6-oxo-5-(trifluoromethyl)-1,6-dihydropyridazin-4-yl)amino)pentyl)isoquinolin-1(2H)-one]
3.43 nM | 0.273 nM | CC[C@@H](CCCn1ccc2cc(-c3ncc(Cl)c(N)n3)c(F)cc2c1=O)Nc1cn[nH]c(=O)c1C(F)(F)F [Example 303, (S)-6-(4-amino-5-chloropyrimidin-2-yl)-7-fluoro-2-(4-((6-oxo-5-(trifluoromethyl)-1,6-dihydropyridazin-4-yl)amino)hexyl)isoquinolin-1(2H)-one]
25.6 nM | 0.199 nM | C[C@@H](CCCn1ccc2cc(-c3cc4ccccn4n3)c(F)cc2c1=O)Nc1cn[nH]c(=O)c1C(F)(F)F [Example 304, (S)-7-fluoro-2-(4-((6-oxo-5-(trifluoromethyl)-1,6-dihydropyridazin-4-yl)amino)pentyl)-6-(pyrazolo[1,5-a]pyridin-2-yl)isoquinolin-1(2H)-one]
